For series [1], the target named is T1, SthA (UdhA), soluble pyridine nucleotide transhydrogenase (Escherichia coli, UniProt P27306). The experiment in a line: thioNADPH formation rate at […] nm. Conditions: activator; 1.0 mM NADH, 0.15 mM thioNADP+, 50 mM Tris pH 7.5, 30 °C. It is filed as biochemical.
The target of series [2] is T1, SthA (UdhA), soluble pyridine nucleotide transhydrogenase. The experiment in a line: absorbance spectrum of purified holoenzyme (A280/[…]). Type of series: binding. Conditions: bound prosthetic group copurified; 20 μM FAD in lysis buffer.
The target is the same in series [3]. As to the kind of experiment: thioNADPH formation at […] nm, substrate-inhibition fit. Type of series: biochemical. Particulars: 50 mM Tris pH 7.5, 30 °C.
Series [4] deals with SthA (UdhA), soluble pyridine nucleotide transhydrogenase (Escherichia coli, UniProt P27306, C45A). The experiment in a line: stopped-flow flavin reduction at […] nm, kobs vs NADH. Particulars: apparent; reductive half-reaction, anaerobic, 25 °C, no NADP+; 50 mM Tris pH 7.5. It is filed as biochemical.
Chain of SthA (UdhA), soluble pyridine nucleotide transhydrogenase (Escherichia coli, UniProt P27306, C45A) (P27306 2-466 C45A): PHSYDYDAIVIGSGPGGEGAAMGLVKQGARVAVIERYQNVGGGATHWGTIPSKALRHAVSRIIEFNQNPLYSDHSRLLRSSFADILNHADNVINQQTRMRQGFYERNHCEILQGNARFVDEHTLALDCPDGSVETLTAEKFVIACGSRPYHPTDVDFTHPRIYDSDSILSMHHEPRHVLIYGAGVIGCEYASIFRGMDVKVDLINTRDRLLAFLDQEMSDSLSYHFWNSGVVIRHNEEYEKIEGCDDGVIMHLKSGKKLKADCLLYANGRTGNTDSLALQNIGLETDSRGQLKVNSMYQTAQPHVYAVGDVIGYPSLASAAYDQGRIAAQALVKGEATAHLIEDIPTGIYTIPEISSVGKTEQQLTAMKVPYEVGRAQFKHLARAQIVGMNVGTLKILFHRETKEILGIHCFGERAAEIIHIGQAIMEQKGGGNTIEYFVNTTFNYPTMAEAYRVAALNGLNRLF
In series [5] the target is T1, SthA (UdhA), soluble pyridine nucleotide transhydrogenase. Described as above. Type of series: biochemical. Conditions: apparent; reductive half-reaction, anaerobic, 25 °C, no NADP+; 50 mM Tris pH 7.5.
The target in series [6] is SthA (UdhA), soluble pyridine nucleotide transhydrogenase (Escherichia coli, UniProt P27306, T50C). The description is as above. Type of series: biochemical. Conditions: apparent; reductive half-reaction, anaerobic, 25 °C, no NADP+; 50 mM Tris pH 7.5.
Chain of SthA (UdhA), soluble pyridine nucleotide transhydrogenase (Escherichia coli, UniProt P27306, T50C) (P27306 2-466 T50C): as the sequence (P27306 2-466 C45A) above, with A44C, T49C counted along it
Substrate in series [7]: NC(=S)c1ccc[n+]([C@@H]2O[C@H](COP(=O)(O)OP(=O)(O)OC[C@H]3O[C@@H](n4cnc5c(N)ncnc54)[C@H](OP(=O)(O)O)[C@@H]3O)[C@@H](O)[C@H]2O)c1
The experiment in a line: purified protein. Type of series: biochemical, Escherichia coli. Particulars: transhydrogenase reaction, 10.0 mM NADH, 50 mM Tris pH 7.5, 30 °C.

Substrate in series [8]: NC(=O)C1=CN([C@@H]2O[C@H](COP(=O)(O)OP(=O)(O)OC[C@H]3O[C@@H](n4cnc5c(N)ncnc54)[C@H](OP(=O)(O)O)[C@@H]3O)[C@@H](O)[C@H]2O)C=CC1
As to the kind of experiment: purified protein. Type of series: biochemical, Escherichia coli. Conditions: oxidase (uncoupling) reaction, 0.2 mM O2, no NAD(P)+, 50 mM Tris pH 7.5, 30 °C.

Series [9] deals with the molecule itself. As to the kind of experiment: dynamic light scattering; purified SthA (>1 mg/ml) in a microcuvette, DynaPro Nanostar, 20 °C, three independent purification batches; oligomer size from the hydrodynamic radius.

For the molecule `Nc1ncnc2c1ncn2[C@@H]1O[C@H](COP(=O)(O)OP(=O)(O)O)[C@@H](O)[C@H]1O` [ADP], the “% activity at 5.0 mM” value in series [1] was “ADP was the best reaction activator, followed by AMP and ATP, respectively”.

For the molecule `Nc1ncnc2c1ncn2[C@@H]1O[C@H](COP(=O)(O)O)[C@@H](O)[C@H]1O` [AMP], the “% activity at 5.0 mM” value in [1] is “all three adenine nucleotides increased the rate of thioNADPH formation”.

Consider `Nc1ncnc2c1ncn2[C@@H]1O[C@H](COP(=O)(O)OP(=O)(O)OP(=O)(O)O)[C@@H](O)[C@H]1O` [ATP], for which the “% activity at 5.0 mM” value in series [1] is reported as “all three adenine nucleotides increased the rate of thioNADPH formation”.

For the molecule `Cc1cc2nc3c(=O)[nH]c(=O)nc-3n(C[C@H](O)[C@H](O)[C@H](O)COP(=O)(O)OP(=O)(O)OC[C@H]3O[C@@H](n4cnc5c(N)ncnc54)[C@H](O)[C@@H]3O)c2cc1C` [FAD], the “absorbance spectrum of purified holoenzyme (A280/450)” value in series [2] is given as “absorbance spectrum of the purified protein indicated the presence of bound oxidized FAD”.

For `NC(=O)C1=CN([C@@H]2O[C@H](COP(=O)(O)OP(=O)(O)OC[C@H]3O[C@@H](n4cnc5c(N)ncnc54)[C@H](O)[C@@H]3O)[C@@H](O)[C@H]2O)C=CC1` [NADH], the “KI” value in series [3] (0.5 mM thioNADP+) amounted to 12100 ± 2000 µM. The Kd in [4] worked out at 300 ± 100 µM; in series [5], 88 ± 27 µM; in series [6], 227 ± 61 µM.

For the molecule `NC(=S)c1ccc[n+]([C@@H]2O[C@H](COP(=O)(O)OP(=O)(O)OC[C@H]3O[C@@H](n4cnc5c(N)ncnc54)[C@H](OP(=O)(O)O)[C@@H]3O)[C@@H](O)[C@H]2O)c1` [thioNADP+], in series [3] (10.0 mM NADH), the “KI” value was 590 ± 260 µM.

B1: SthA (UdhA), soluble pyridine nucleotide transhydrogenase (Escherichia coli K-12) (protein)
chain: PHSYDYDAIVIGSGPGGEGAAMGLVKQGARVAVIERYQNVGGGCTHWGTIPSKALRHAVSRIIEFNQNPLYSDHSRLLRSSFADILNHADNVINQQTRMRQGFYERNHCEILQGNARFVDEHTLALDCPDGSVETLTAEKFVIACGSRPYHPTDVDFTHPRIYDSDSILSMHHEPRHVLIYGAGVIGCEYASIFRGMDVKVDLINTRDRLLAFLDQEMSDSLSYHFWNSGVVIRHNEEYEKIEGCDDGVIMHLKSGKKLKADCLLYANGRTGNTDSLALQNIGLETDSRGQLKVNSMYQTAQPHVYAVGDVIGYPSLASAAYDQGRIAAQALVKGEATAHLIEDIPTGIYTIPEISSVGKTEQQLTAMKVPYEVGRAQFKHLARAQIVGMNVGTLKILFHRETKEILGIHCFGERAAEIIHIGQAIMEQKGGGNTIEYFVNTTFNYPTMAEAYRVAALNGLNRLF
As a reminder, the Km is the substrate concentration at which the rate is half of its maximum. The term kcat denotes the maximal rate divided by the concentration of active sites. As a reminder, the kcat/Km is the turnover number divided by the Michaelis constant. For the molecule B1, in series [7], the Km stood at 120 ± 40 µM, the kcat came out at 15.3 ± 3.1 s⁻¹ and the kcat/Km was 128000 M⁻¹ s⁻¹. Further, in series [8], the Michaelis constant (Km) turned out to be 91.8 ± 30.5 µM, the turnover number (kcat) amounted to 0.2 ± 0.03 s⁻¹ and the kcat/Km was determined as 2200 M⁻¹ s⁻¹.

B2: soluble pyridine nucleotide transhydrogenase SthA from Escherichia coli K-12 (enzyme, E. coli K-12, UniProt P27306 1-466, looked up)
chain: MPHSYDYDAIVIGSGPGGEGAAMGLVKQGARVAVIERYQNVGGGCTHWGTIPSKALRHAVSRIIEFNQNPLYSDHSRLLRSSFADILNHADNVINQQTRMRQGFYERNHCEILQGNARFVDEHTLALDCPDGSVETLTAEKFVIACGSRPYHPTDVDFTHPRIYDSDSILSMHHEPRHVLIYGAGVIGCEYASIFRGMDVKVDLINTRDRLLAFLDQEMSDSLSYHFWNSGVVIRHNEEYEKIEGCDDGVIMHLKSGKKLKADCLLYANGRTGNTDSLALQNIGLETDSRGQLKVNSMYQTAQPHVYAVGDVIGYPSLASAAYDQGRIAAQALVKGEATAHLIEDIPTGIYTIPEISSVGKTEQQLTAMKVPYEVGRAQFKHLARAQIVGMNVGTLKILFHRETKEILGIHCFGERAAEIIHIGQAIMEQKGGGNTIEYFVNTTFNYPTMAEAYRVAALNGLNRLF
notes: Soluble pyridine nucleotide transhydrogenase SthA (UdhA) of E. coli K-12; protomer with a calculated molar mass of around 54 kDa; No removal of the His tag is described; also called UdhA; soluble transhydrogenase
As usually defined, the stoichiometry N is the number of molecules, sites or subunits per partner or assembly. For B2, the “stoichiometry N” value in series [9] was determined as 8.

For the origin of these results see publication PMC9460512, “A conserved sequence motif in the Escherichia coli soluble FAD-containing pyridine nucleotide transhydrogenase is important for reaction efficiency” (The Journal of Biological Chemistry, 2022).
